Experimental data published in patent US20200131669A1, “CYCLIC PEPTIDE COMPOUND HAVING HIGH MEMBRANE PERMEABILITY, AND LIBRARY CONTAINING SAME” (Chugai Seiyaku Kabushiki Kaisha, priority 2017, published 2020).
Starred links: 1 amine or outer side, 2 acyl side, 3 side chain; linkers in the order of their positions; H or OH if unused. Positions of bridges follow the written chain, without caps; N, C: chain ends. Non-standard residues stand in square brackets, D forms with d. Residues, ends and D or L forms follow the SMILES beside them. ξ: configuration not given here. *: point of attachment. Phe(4-CHF2) = N[C@@H](Cc1ccc(C(F)F)cc1)C(=O)O; NMePhe(3-Cl) = CN[C@@H](Cc1cccc(Cl)c1)C(=O)O; X5 = O=C(C(CCc1noc(=O)[nH]1)N[*:1])[*:2]; Ethyl(2-morpholino) = C1CN(CC*)CCO1; NMeF = CN[C@@H](Cc1ccccc1)C(=O)O; NMeGABA = CN(CCCC(=O)[*:2])[*:1]; NMeI = CC[C@H](C)[C@H](NC)C(=O)O; ξThr(3R) = C[C@@H](O)C(N)C(=O)O; NMeL = CN[C@@H](CC(C)C)C(=O)O; Propyl(2R-OH) = C[C@@H](O)C*; NMeV = CN[C@H](C(=O)O)C(C)C; NMeAbu = CC[C@H](NC)C(=O)O; NMeA = CN[C@@H](C)C(=O)O; Piperidide = C1CCN(*)CC1; NBuGly = CCCCNCC(=O)O; ξS = NC(CO)C(=O)O; Sar = CNCC(=O)O; tBu = CC(C)(C)*; CHF2 = FC(F)*

experiment: Caco-2 membrane permeability, improved method as used in the following Examples (96-well, 20 to 24 h preincubation); format: in vitro ADME; details: human, Caco-2, Caco-2
Procedure, shortened: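 Caco-2 monolayers were grown three weeks and preincubated 20–24 h at 37 °C with compound in DMEM+FaSSIF (1% DMSO) apically. The assay then used compound in FaSSIF/HBSS (1% DMSO, pH 6.0) apically and HBSS with 4% BSA (pH 7.4) basally. Basal samples were taken at 180 min for LC/MS, and Papp (cm/sec) was calculated.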

`CC[C@H](C)[C@@H]1NC(=O)[C@H](CC(C)C)N(C)C(=O)CN(C)C(=O)C[C@@H](C(=O)N2CCCCC2)NC(=O)[C@H](C(C)C)N(C)C(=O)[C@H](Cc2ccc(C(F)F)cc2)NC(=O)[C@H](CC(C)C)N(C)C(=O)[C@H](Cc2ccccc2)N(C)C(=O)CN(C)C(=O)[C@H]([C@@H](C)O)NC(=O)[C@H](CC(C)C)N(C)C1=O` [pd475] ([Sar][NMeL]I[NMeL]T[Sar][NMeF][NMeL][Phe(4-CHF2)][NMeV]D-Piperidide; lactam N-11) and `CC[C@H](C)[C@@H]1NC(=O)[C@H](CC(C)C)N(C)C(=O)CN(C)C(=O)C[C@@H](C(=O)N2CCCCC2)NC(=O)[C@H](C(C)C)N(C)C(=O)[C@H](Cc2ccc(OC(F)F)cc2)NC(=O)[C@H](CC(C)C)N(C)C(=O)[C@H](Cc2ccccc2)N(C)C(=O)CN(C)C(=O)[C@H]([C@@H](C)O)NC(=O)[C@H](CC(C)C)N(C)C1=O` [pd481] ([Sar][NMeL]I[NMeL]T[Sar][NMeF][NMeL]Y(CHF2)[NMeV]D-Piperidide; lactam N-11) are within 1.5-fold of each other in Papp A→B at 180 min: 4.2 ×10⁻⁶ cm/s for the first, 3.8 ×10⁻⁶ cm/s for the second.

First: CC(C)C[C@@H]1NC(=O)C[C@@H](C(=O)N2CCCCC2)NC(=O)[C@H](CC(C)C)N(C)C(=O)[C@H](CC(C)C)N(C)C(=O)[C@H](Cc2ccc(OC(F)F)cc2)NC(=O)[C@H](C)N(C)C(=O)CN(C)C(=O)[C@H]([C@@H](C)O)NC(=O)[C@H](CC(C)C)N(C)C(=O)[C@H](C(C)C)NC(=O)[C@H](Cc2ccccc2)N(C)C1=O [pd477] (L[NMeF]V[NMeL]T[Sar][NMeA]Y(CHF2)[NMeL][NMeL]D-Piperidide; lactam N-11)
Second: CC[C@H](C)[C@H]1C(=O)N[C@@H]([C@@H](C)O)C(=O)N(C)CC(=O)N(C)[C@@H](CC(C)C)C(=O)N[C@@H](C(=O)N2CCCCC2)CC(=O)N(C)[C@@H](C)C(=O)N[C@@H](CC(C)C)C(=O)N(C)[C@@H](CC(C)C)C(=O)N(C)[C@@H](CC(C)C)C(=O)N[C@@H](Cc2ccc(OC(F)F)cc2)C(=O)N(C)[C@@H](C)C(=O)N1C [pd480] ([NMeA]L[NMeL][NMeL]Y(CHF2)[NMeA][NMeI]T[Sar][NMeL][dD]-Piperidide; lactam N-11)
The Papp A→B at 180 min of the first is 2.3-fold lower: 2.2 ×10⁻⁶ cm/s for the first, 5 ×10⁻⁶ cm/s for the second.

`CC(C)C[C@H]1C(=O)N[C@@H](Cc2ccc(OC(F)F)cc2)C(=O)N(C)[C@@H](CC(C)C)C(=O)N(C)[C@@H](Cc2ccccc2)C(=O)N[C@@H](COC(C)(C)C)C(=O)N(C)[C@@H](CC(C)C)C(=O)NC([C@@H](C)O)C(=O)N(C)[C@@H](C)C(=O)N(C)[C@@H](CC(C)C)C(=O)N[C@@H](C(=O)N2CCCCC2)CC(=O)N(C)CCCC(=O)N1C` (stereo partly drawn) [pd478] ([NMeGABA][NMeL]Y(CHF2)[NMeL][NMeF]S(tBu)[NMeL][ξThr(3R)][NMeA][NMeL][dD]-Piperidide; lactam N-11) and `CCCCN1CC(=O)N(C)[C@@H](C)C(=O)N[C@H](C(=O)N2CCCCC2)CC(=O)N(C)[C@@H](C)C(=O)N[C@@H](Cc2ccc(OC(F)F)cc2)C(=O)N(C)[C@@H](CC(C)C)C(=O)N(C)[C@@H](Cc2ccccc2)C(=O)N[C@@H](CC(C)C)C(=O)N(C)[C@@H](CC(C)C)C(=O)N(C)[C@@H]([C@@H](C)CC)C(=O)N[C@@H]([C@@H](C)O)C1=O` [pd479] ([NMeA]Y(CHF2)[NMeL][NMeF]L[NMeL][NMeI]T[NBuGly][NMeA]D-Piperidide; lactam N-11) are within 1.5-fold of each other in Papp A→B at 180 min: 1.3 ×10⁻⁶ cm/s for the first, 1 ×10⁻⁶ cm/s for the second.

`CCCCN1CC(=O)N(C)[C@@H](CC(C)C)C(=O)N[C@H](C(=O)N2CCCCC2)CC(=O)N(C)[C@@H](CC)C(=O)NC(COCCN2CCOCC2)C(=O)N(C)[C@@H](CC(C)C)C(=O)N(C)[C@@H](CC)C(=O)N[C@@H](C(C)C)C(=O)N(C)[C@@H](Cc2ccccc2)C(=O)N(C)[C@@H](CC(C)C)C(=O)N[C@@H]([C@@H](C)O)C1=O` (stereo partly drawn) [pd483] ([NMeAbu][ξS](Ethyl(2-morpholino))[NMeL][NMeAbu]V[NMeF][NMeL]T[NBuGly][NMeL]D-Piperidide; lactam N-11) and `CCCCN1CC(=O)N(C)[C@@H](Cc2ccccc2)C(=O)N(C)[C@@H](CC(C)C)C(=O)N[C@@H](C(C)C)C(=O)N(C)[C@@H](CC(C)C)C(=O)N[C@H](C(=O)N2CCCCC2)CC(=O)N(C)CC(=O)N(C)[C@@H](CC(C)C)C(=O)NC(COCCN2CCOCC2)C(=O)N(C)[C@@H](CC(C)C)C(=O)N[C@@H]([C@@H](C)O)C1=O` (stereo partly drawn) [pd484] ([Sar][NMeL][ξS](Ethyl(2-morpholino))[NMeL]T[NBuGly][NMeF][NMeL]V[NMeL]D-Piperidide; lactam N-11) are within 1.5-fold of each other in Papp A→B at 180 min: 1.9 ×10⁻⁶ cm/s for the first, 1.8 ×10⁻⁶ cm/s for the second.

`CC[C@H](C)[C@@H]1NC(=O)[C@H](CC(C)C)N(C)C(=O)CCCN(C)C(=O)C[C@@H](C(=O)N2CCCCC2)NC(=O)[C@H](CC(C)C)N(C)C(=O)[C@H](CC(C)C)N(C)C(=O)[C@H](COCCN2CCOCC2)NC(=O)[C@H](CC(C)C)N(C)C(=O)[C@H](COC(C)(C)C)NC(=O)[C@H](CC)N(C)C(=O)[C@H](Cc2ccccc2)N(C)C1=O` [pd485] ([NMeGABA][NMeL]I[NMeF][NMeAbu]S(tBu)[NMeL]S(Ethyl(2-morpholino))[NMeL][NMeL]D-Piperidide; lactam N-11) and `CCCCN1CC(=O)N(C)[C@@H](Cc2ccccc2)C(=O)N(C)[C@@H](CC(C)C)C(=O)N[C@@H](COC(C)(C)C)C(=O)N(C)[C@@H](CC(C)C)C(=O)N[C@H](C(=O)N2CCCCC2)CC(=O)N(C)CC(=O)N(C)[C@@H](Cc2cccc(Cl)c2)C(=O)N[C@@H](COC[C@@H](C)O)C(=O)N(C)[C@@H](CC(C)C)C(=O)N[C@@H]([C@@H](C)O)C1=O` [pd490] ([Sar][NMePhe(3-Cl)]S(Propyl(2R-OH))[NMeL]T[NBuGly][NMeF][NMeL]S(tBu)[NMeL]D-Piperidide; lactam N-11) are within 1.5-fold of each other in Papp A→B at 180 min: 1.2 ×10⁻⁶ cm/s for the first, 1 ×10⁻⁶ cm/s for the second.

same assay, conditions: human; Papp, Caco-2 membrane permeability, improved method; read-out: Caco-2

`CCCCN1CC(=O)N(C)[C@@H](CC(C)C)C(=O)N[C@H](C(=O)N2CCCCC2)CC(=O)N(C)[C@@H](CC)C(=O)N[C@@H](CC(C)C)C(=O)N(C)[C@@H](CC(C)C)C(=O)N(C)[C@@H](Cc2ccccc2)C(=O)NC(CCc2noc(=O)[nH]2)C(=O)N(C)[C@@H](CC(C)C)C(=O)N(C)[C@@H](CC(C)C)C(=O)NC([C@@H](C)O)C1=O` (stereo partly drawn) [pd487] ([NMeAbu]L[NMeL][NMeF][X5][NMeL][NMeL][ξThr(3R)][NBuGly][NMeL]D-Piperidide; lactam N-11) and `CCCCN1CC(=O)N(C)[C@@H](Cc2ccccc2)C(=O)N(C)[C@@H](CC(C)C)C(=O)N[C@@H](CC(C)C)C(=O)N(C)[C@@H](CC(C)C)C(=O)N[C@H](C(=O)N2CCCCC2)CC(=O)N(C)CC(=O)N(C)[C@@H](CC(C)C)C(=O)N[C@@H](C(C)C)C(=O)N(C)[C@@H](CC(C)C)C(=O)NC(CCc2noc(=O)[nH]2)C1=O` (stereo partly drawn) [pd488] ([Sar][NMeL]V[NMeL][X5][NBuGly][NMeF][NMeL]L[NMeL]D-Piperidide; lactam N-11) are within 1.5-fold of each other in Papp A→B at 180 min: 2.2 ×10⁻⁶ cm/s for the first, 1.6 ×10⁻⁶ cm/s for the second.

`CC(C)C[C@H]1C(=O)N[C@@H](COC(C)(C)C)C(=O)N(C)[C@@H](Cc2ccccc2)C(=O)N(C)[C@@H](CC(C)C)C(=O)N[C@H](C(=O)N2CCCCC2)CC(=O)N[C@@H](C(C)C)C(=O)N(C)[C@@H](Cc2ccccc2)C(=O)N[C@@H](COC[C@@H](C)O)C(=O)N(C)[C@@H](CC(C)C)C(=O)N[C@@H](C(C)C)C(=O)N(C)CC(=O)N1C` [pd492] (V[NMeF]S(Propyl(2R-OH))[NMeL]V[Sar][NMeL]S(tBu)[NMeF][NMeL]D-Piperidide; lactam N-11) showed a Papp A→B at 180 min of 2.5 ×10⁻⁶ cm/s.
